Structures are written as SMILES.

Common to all, as to type: in vivo
Series [1] relates to DS male mice. Put plainly: Anti-pentylenetetrazol activity. Conditions: compound given orally 60 minutes prior to 125 mg/kg s.c. pentylenetetrazol, complete protection against mortality, observed 2 hours. The source says:
1. Anti-pentylenetetrazol activity
The convulsions were disregarded.

In series [2] the test system is DS male mice. Put plainly: Taming activity (inhibition of electroshock-induced fighting). The conditions noted are these: compound administered 60 minutes prior, inhibition of fighting responses, 5 pairs. The protocol: (§1) This test was measured on DS male mice.
These pairs of mice were selected in the morning and used for drug test in the afternoon. The test compound was administered to both mice of the pairs 60 minutes prior to the experiment. Results were obtained as the mean percentage of inhibition of fighting responses in a group of 5 pairs and shown by ED50 [Tedeschi, et al.: J. Pharmacol Exp. Thev., 125, 28-34 (1959)].

The test system of series [3] is DS male mice. Put plainly: Rotarod performance activity. The conditions noted are these: fall from rod within less than 2 minutes. Here is the method: 3. Rotarod performance activity:
as §1
The mouse was put on a scraped rod of wood, 3 cm in diameter, turning at the rate of five rotations per minute. The mice that could remain on the rod for 3 or more minutes in successive trails were selected and placed in a group of 10 mice for each dose. If the mouse fell down from the rod within less than 2 minutes, the test compound was considered to be effective. Results were shown by ED50 [Dunham, et al.: J. Am. Pharm. Assoc., 46, 208 (1957)].
(The rotarod test checks motor coordination on a turning rod.)

For `CN(C(=O)CNC(=O)CN)c1ccc(Cl)cc1C(=O)c1ccccc1` [Compound 1, 2-benzoyl-4-chloro-N-methyl-N^α -glycyl-glycinanilide], in the series with DS male mice [1], the “Anti-pentylenetetrazol activity, ED50” value worked out at 1.0 mg/kg.
As for `CN(C(=O)CNC(=O)CN)c1ccc(Cl)cc1C(=O)c1ccccc1Cl.O` [Compound 2, 2-o-chlorobenzoyl-4-chloro-N-methyl-N^α -glycyl-glycinanilide hydrate], in the series on DS male mice [1], the “Anti-pentylenetetrazol activity, ED50” value came out at 0.58 mg/kg. The “Taming activity ED50” value with DS male mice [2] is 3.0 mg/kg.
As for `CN(C(=O)CNC(=O)CN)c1ccc(Cl)cc1C(=O)c1ccccc1F.Cl` [Compound 3, 2-o-fluorobenzoyl-4-chloro-N-methyl-N^α -glycyl-glycinanilide hydrochloride], in the series on DS male mice [1], the “Anti-pentylenetetrazol activity, ED50” value was found to be 0.33 mg/kg. In addition, in the series on DS male mice [2], the “Taming activity ED50” value is on record as 1.6 mg/kg. For the same molecule, the “Rotarod performance ED50” value in the series on DS male mice [3] is given as 17.0 mg/kg.
On to `CNC1=Nc2ccc(Cl)cc2C(c2ccccc2)=[N+]([O-])C1` [Compound 4, Chlordiazepoxide, reference compound], for which the “Rotarod performance ED50” value in the series with DS male mice [3] was found to be 50.0 mg/kg.

Values taken from patent US4076704A, “Dipeptide derivatives and their production” (Shionogi & Co., Ltd., priority 1974, dated 1978).
